Values quoted from earlier work, collected in US20250367153A1, “COMPOSITION AND APPLICATION THEREOF” (priority 2024, published 2025).

Key:
[1] = system: rat, mouse, and guinea pig

O=CC=Cc1ccccc1 [cinnamaldehyde]
LD50 [1]: 3400 mg/kg

OCC=Cc1ccccc1 [cinnamyl alcohol]
LD50 [1]: 2675 mg/kg

NCC(=O)O [glycine]
NOAEL (no-observed-adverse-effect level) (rat): at least 2000 mg/kg/day

phosphatidylserine
acute oral LD50 (rats and dogs; acute oral): greater than 5 g/kg bw | NOAEL (rats and dogs; rats and dogs): 1,000 mg/kg bw/day
